Tests used:
[1] = biological target: Casein kinase I isoform gamma-2 (Homo sapiens) (UniProt P78368); test: Inhibition of human recombinant CK1g2 at 40 nM in presence of ATP by radiometric assay relative to control
[2] = biological target: T1, cAMP-dependent protein kinase catalytic subunit PRKX (Homo sapiens) (UniProt P51817); test: Inhibition of human recombinant PRKX at 40 nM in presence of ATP by radiometric assay relative to control
T1 sequence (whole entry): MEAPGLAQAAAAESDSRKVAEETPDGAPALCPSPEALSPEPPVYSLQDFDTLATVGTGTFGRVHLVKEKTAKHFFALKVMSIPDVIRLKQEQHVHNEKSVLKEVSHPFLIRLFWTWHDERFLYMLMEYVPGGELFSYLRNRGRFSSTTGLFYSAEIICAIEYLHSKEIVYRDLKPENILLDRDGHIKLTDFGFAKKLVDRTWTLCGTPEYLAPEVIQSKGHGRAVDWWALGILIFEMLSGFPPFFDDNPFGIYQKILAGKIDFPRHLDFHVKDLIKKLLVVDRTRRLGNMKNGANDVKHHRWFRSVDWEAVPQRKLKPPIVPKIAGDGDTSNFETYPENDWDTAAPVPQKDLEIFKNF

[3] = biological target: Casein kinase I isoform gamma-2 (Homo sapiens) (UniProt P78368); test: Inhibition of human recombinant CK1g2 at 40 nM related to control ULK1
[4] = biological target: Tyrosine-protein kinase Lyn (Homo sapiens) (UniProt P07948); test: Inhibition of human recombinant LYN at 15 nM in presence of ATP by radiometric assay relative to control
Tyrosine-protein kinase Lyn (Homo sapiens), sequence (P07948 2-512 limits assumed): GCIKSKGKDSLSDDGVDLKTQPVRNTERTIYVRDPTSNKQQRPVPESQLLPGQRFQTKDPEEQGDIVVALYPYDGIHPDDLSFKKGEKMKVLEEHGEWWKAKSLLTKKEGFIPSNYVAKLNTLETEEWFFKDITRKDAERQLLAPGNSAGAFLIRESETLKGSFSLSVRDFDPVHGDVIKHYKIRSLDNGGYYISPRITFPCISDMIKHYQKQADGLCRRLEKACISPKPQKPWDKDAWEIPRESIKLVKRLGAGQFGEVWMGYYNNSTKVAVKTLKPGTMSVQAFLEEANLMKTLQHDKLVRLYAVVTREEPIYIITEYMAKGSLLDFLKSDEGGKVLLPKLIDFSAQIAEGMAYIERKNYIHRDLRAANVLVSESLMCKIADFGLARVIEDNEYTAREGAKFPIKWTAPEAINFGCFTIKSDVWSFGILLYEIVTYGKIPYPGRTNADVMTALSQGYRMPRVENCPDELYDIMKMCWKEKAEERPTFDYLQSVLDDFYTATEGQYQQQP

[5] = biological target: Serine/threonine-protein kinase MARK2 (Homo sapiens) (UniProt Q7KZI7); test: Inhibition of human recombinant MARK2 at 15 nM in presence of ATP by radiometric assay relative to control
Serine/threonine-protein kinase MARK2 (Homo sapiens), sequence (Q7KZI7 whole entry): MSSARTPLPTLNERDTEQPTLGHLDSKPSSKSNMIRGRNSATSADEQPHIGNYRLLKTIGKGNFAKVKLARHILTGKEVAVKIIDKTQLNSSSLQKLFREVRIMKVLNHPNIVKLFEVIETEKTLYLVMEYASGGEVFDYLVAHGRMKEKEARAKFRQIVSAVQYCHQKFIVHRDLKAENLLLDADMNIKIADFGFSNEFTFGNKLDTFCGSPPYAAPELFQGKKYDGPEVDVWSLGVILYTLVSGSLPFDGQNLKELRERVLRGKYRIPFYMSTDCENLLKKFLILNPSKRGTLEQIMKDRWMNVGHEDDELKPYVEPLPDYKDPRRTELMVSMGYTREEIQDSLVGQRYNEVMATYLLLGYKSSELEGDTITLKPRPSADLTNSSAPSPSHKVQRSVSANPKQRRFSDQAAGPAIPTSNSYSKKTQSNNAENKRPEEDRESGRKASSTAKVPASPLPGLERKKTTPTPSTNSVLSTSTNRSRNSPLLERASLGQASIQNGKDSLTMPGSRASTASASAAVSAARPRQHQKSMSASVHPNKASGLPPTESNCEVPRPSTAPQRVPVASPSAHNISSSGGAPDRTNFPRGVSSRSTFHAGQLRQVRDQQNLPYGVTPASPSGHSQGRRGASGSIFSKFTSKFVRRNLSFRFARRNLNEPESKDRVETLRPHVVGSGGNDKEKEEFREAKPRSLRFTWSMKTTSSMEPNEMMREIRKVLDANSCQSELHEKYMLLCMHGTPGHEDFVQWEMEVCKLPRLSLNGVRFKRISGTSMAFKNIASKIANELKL

[6] = biological target: Ribosomal protein S6 kinase alpha-3 (Homo sapiens) (UniProt P51812); test: Inhibition of human recombinant RSK2 at 15 nM in presence of ATP by radiometric assay relative to control
Ribosomal protein S6 kinase alpha-3 (Homo sapiens), sequence (P51812 whole entry): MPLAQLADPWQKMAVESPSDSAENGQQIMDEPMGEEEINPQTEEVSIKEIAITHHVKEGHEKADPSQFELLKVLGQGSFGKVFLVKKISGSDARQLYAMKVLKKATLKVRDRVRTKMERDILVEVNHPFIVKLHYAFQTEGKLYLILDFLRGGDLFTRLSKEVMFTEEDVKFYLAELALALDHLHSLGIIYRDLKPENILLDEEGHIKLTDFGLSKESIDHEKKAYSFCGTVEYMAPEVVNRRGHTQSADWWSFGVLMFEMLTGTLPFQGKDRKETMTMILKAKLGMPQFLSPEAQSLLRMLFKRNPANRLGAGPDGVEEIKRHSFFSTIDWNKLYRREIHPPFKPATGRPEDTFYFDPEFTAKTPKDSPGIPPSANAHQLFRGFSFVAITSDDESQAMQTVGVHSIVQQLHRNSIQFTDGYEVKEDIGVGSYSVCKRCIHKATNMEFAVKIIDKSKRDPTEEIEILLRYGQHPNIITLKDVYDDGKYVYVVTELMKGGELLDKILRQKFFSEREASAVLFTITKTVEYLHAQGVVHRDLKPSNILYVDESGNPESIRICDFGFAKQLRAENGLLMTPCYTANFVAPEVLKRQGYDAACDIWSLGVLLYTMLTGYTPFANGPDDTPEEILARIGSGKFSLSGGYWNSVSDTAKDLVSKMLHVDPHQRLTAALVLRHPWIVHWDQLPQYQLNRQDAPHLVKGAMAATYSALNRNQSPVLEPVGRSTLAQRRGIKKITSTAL

[7] = biological target: Serine/threonine-protein kinase SIK2 (Homo sapiens) (UniProt Q9H0K1); test: Inhibition of human recombinant QIK at 15 nM related to control ULK1
Serine/threonine-protein kinase SIK2 (Homo sapiens), sequence (Q9H0K1 whole entry, looked up): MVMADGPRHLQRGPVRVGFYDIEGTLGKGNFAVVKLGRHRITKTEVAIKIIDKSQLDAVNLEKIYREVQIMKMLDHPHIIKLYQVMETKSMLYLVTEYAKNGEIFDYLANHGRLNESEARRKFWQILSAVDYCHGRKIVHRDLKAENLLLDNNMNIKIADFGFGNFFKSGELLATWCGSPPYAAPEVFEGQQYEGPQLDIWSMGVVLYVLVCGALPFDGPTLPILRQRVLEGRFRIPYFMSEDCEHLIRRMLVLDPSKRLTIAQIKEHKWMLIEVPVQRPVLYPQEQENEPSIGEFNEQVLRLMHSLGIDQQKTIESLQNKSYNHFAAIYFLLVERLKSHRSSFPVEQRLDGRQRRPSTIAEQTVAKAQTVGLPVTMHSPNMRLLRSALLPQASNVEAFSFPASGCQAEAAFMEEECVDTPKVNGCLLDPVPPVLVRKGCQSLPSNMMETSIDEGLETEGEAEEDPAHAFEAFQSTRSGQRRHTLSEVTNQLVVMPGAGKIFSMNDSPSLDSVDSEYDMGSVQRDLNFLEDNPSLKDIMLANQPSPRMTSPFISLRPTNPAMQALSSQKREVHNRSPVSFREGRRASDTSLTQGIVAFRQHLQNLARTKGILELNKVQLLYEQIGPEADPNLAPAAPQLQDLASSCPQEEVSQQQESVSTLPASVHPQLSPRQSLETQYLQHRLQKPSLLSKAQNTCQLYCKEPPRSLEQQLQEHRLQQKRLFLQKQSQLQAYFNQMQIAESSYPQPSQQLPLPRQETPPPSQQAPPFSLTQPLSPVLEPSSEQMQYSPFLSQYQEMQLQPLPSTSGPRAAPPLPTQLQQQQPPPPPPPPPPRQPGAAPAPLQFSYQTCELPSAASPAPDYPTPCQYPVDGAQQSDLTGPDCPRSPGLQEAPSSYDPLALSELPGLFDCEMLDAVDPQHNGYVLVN

[8] = biological target: T2, G protein-coupled receptor kinase 3 (Homo sapiens) (UniProt P35626); test: Inhibition of human recombinant BARK2 at 500 nM related to control ULK1
T2 sequence (whole entry): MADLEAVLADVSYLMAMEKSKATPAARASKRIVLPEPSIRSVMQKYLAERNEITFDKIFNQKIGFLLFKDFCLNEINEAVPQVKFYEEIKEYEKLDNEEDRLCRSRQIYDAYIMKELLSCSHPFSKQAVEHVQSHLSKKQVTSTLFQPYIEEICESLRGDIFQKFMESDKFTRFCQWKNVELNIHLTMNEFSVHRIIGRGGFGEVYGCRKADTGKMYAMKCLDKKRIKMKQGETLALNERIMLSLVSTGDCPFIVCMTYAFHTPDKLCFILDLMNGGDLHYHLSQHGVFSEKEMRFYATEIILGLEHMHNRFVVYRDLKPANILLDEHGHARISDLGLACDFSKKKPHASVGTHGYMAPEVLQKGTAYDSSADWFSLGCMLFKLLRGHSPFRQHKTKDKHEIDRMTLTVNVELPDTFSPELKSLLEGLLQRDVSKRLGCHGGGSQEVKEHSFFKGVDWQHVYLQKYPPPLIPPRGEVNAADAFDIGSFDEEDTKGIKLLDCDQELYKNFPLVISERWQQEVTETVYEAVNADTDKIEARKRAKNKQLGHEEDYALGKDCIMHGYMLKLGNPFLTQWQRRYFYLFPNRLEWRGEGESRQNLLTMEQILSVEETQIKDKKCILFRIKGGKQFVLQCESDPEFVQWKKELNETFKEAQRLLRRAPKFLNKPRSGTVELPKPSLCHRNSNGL

[9] = biological target: T3, Protein kinase C epsilon type (Homo sapiens) (UniProt Q02156); test: Inhibition of human recombinant PKCe at 500 nM related to control ULK1
T3 sequence (whole entry): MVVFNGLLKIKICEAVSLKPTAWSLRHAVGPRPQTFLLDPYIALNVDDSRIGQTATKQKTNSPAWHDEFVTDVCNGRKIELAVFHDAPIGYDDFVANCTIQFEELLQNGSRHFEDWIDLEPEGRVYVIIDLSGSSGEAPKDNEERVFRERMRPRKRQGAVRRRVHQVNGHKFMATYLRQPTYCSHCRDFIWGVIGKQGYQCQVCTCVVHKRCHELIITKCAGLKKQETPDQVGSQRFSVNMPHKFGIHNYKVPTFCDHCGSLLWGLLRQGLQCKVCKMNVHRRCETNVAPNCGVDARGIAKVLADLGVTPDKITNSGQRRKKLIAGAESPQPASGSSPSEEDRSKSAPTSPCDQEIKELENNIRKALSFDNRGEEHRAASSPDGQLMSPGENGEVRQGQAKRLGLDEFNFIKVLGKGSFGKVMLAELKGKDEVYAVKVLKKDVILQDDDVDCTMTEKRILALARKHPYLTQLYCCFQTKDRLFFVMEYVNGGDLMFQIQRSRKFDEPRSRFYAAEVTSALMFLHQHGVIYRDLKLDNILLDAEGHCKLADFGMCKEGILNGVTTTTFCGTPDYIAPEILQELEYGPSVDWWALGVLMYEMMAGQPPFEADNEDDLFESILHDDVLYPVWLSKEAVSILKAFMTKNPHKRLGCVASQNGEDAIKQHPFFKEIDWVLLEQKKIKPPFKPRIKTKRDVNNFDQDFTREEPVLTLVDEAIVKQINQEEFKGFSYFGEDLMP

Casein kinase I isoform gamma-2 (Homo sapiens), sequence (P78368 whole entry, looked up, canonical isoform): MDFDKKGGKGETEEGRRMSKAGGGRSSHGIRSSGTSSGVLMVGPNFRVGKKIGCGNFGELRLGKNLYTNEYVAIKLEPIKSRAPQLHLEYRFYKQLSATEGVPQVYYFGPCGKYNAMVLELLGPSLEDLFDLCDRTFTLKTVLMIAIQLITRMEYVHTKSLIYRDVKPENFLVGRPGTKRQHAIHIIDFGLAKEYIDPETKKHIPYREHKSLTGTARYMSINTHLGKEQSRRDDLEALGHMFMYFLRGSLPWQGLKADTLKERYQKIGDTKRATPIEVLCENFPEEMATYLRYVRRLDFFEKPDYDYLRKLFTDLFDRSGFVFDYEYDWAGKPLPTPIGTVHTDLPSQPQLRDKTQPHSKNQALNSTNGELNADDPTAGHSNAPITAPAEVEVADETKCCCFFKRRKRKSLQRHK

## O=C(N[C@@H](C1CC1)C(F)(F)F)c1cc(-c2cnn3cc(-c4ccc(F)cc4)cnc23)cs1
[1]
  inhibition: 5%
[2]
  inhibition: 20%
[3]
  fold change (FC): 0.07

## CC(C)[C@H](NC(=O)c1cc(-c2cnn3cc(-c4ccc(OCCN5CCCCC5)cc4)cnc23)cs1)C(F)(F)F
[4]
  inhibition: 19%
[5]
  inhibition: 47%
[6]
  inhibition: 0%
[7]
  fold change (FC): 1.02

## CNC(=O)c1ccccc1Oc1nc(Nc2cc(OC)c(OC)c(OC)c2)ncc1Br
[8]
  fold change (FC): 0.09
[9]
  fold change (FC): 0
